Where two headings read alike, the source gives them in different places.
Key:
[1] = molecular target: T1, AEA-DA lipid probe targets in Neuro2a cells (Mus musculus, UniProt Q8VCX5); settings: protein Micu1, Neuro2a cells
T1 sequence (Q8VCX5 34-477): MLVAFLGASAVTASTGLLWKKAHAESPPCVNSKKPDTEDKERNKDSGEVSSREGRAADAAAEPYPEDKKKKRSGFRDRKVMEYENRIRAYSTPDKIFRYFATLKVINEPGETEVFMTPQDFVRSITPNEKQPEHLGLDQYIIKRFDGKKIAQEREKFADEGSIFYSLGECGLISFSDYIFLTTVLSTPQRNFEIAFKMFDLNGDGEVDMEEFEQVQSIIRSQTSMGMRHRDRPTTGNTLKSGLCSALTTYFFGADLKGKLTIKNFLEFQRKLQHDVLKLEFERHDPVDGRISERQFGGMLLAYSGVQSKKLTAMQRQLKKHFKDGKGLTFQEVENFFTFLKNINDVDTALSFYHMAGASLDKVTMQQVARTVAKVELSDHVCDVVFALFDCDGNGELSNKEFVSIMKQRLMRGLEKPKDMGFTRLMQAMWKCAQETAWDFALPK

[2] = molecular target: T2, AEA-DA lipid probe targets in Neuro2a cells (Mus musculus, UniProt Q8BVE8)
T2 sequence (Q8BVE8 1-1365): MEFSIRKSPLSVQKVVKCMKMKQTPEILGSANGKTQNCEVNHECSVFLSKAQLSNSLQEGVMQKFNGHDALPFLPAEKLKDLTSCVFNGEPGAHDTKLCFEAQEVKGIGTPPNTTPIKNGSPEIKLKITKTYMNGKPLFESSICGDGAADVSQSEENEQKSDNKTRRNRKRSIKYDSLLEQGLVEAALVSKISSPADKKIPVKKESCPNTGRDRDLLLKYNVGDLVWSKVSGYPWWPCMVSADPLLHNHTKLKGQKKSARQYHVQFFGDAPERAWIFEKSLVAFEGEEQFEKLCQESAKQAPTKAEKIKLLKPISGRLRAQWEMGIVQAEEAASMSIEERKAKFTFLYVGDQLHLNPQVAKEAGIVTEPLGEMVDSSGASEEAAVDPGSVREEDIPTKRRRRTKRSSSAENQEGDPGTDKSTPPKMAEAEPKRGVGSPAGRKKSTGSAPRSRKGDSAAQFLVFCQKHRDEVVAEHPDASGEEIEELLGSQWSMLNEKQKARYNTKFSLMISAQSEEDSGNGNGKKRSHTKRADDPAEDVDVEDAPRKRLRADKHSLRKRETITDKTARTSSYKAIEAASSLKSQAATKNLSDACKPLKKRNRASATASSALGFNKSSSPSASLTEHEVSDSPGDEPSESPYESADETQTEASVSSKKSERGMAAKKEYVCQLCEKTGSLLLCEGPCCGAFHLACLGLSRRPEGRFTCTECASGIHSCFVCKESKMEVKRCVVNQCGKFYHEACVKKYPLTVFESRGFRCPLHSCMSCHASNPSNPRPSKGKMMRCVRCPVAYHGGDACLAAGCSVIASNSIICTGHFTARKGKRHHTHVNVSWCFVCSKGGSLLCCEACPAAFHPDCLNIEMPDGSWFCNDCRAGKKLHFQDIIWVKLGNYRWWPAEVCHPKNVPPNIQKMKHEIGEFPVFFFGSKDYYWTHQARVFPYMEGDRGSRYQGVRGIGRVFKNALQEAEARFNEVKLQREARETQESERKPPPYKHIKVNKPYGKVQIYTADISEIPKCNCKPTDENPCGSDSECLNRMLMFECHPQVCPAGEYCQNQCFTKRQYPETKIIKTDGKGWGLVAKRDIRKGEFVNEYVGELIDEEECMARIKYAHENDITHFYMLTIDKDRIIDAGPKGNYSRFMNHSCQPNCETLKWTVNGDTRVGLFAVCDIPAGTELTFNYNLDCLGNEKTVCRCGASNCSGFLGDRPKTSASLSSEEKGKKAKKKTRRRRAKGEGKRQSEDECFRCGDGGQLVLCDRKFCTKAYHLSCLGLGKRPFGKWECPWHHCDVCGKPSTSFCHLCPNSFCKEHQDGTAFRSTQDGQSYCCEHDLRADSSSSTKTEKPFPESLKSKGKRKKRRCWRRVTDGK

[3] = molecular target: T3, AEA-DA lipid probe targets in Neuro2a cells (Mus musculus, UniProt Q8C0K5)
T3 sequence (Q8C0K5 1-332): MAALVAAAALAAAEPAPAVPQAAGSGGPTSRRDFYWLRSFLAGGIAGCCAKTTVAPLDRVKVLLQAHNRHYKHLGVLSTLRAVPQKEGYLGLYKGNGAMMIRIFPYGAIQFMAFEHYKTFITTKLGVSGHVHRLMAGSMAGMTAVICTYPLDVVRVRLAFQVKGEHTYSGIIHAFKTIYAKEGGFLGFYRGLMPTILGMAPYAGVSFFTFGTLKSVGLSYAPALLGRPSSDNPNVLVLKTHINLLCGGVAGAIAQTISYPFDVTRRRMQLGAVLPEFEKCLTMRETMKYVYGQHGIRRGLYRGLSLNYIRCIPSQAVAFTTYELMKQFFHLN

Structure (SMILES)	SILAC ratio (AEA-DA competition) ([1]; competitor 25 μM)	SILAC ratio Whsc1 ([2]; competitor 10 μM)	SILAC ratio Whsc1 ([2]; competitor 25 μM)	SILAC ratio Whsc1 ([2]; competitor 100 μM)	SILAC ratio Slc25a16 ([3]; competitor 10 μM)	SILAC ratio Slc25a16 ([3]; competitor 25 μM)	SILAC ratio (AEA-DA competition) ([1]; competitor 10 μM)	SILAC ratio Whsc1 ([2]; competitor 200 μM)	SILAC ratio Slc25a16 ([3]; competitor 200 μM)
C=CCN(C)CCCCCCOc1ccc(C(=O)c2ccc(Br)cc2)c(F)c1 [Ro 48-8071, reference compound]	0.9								
CN1CCN(C(=O)c2[nH]c3ccc([N+](=O)[O-])cc3c2-c2ccccc2)CC1 [MJN228, (4-Methylpiperazin-1-yl)(5-nitro-3-phenyl-1H-indol-2-yl)methanone]	1.5	1.4	1.2	1.6	1.2	1.1	1.2		
CCCCC/C=C\C/C=C\C/C=C\C/C=C\CCCC(=O)NCCO [AEA, anandamide, reference compound]								1.0	1.5

Source: patent publication US10168342B2, “Lipid probes and uses thereof” (THE SCRIPPS RESEARCH INSTITUTE, priority 2015, dated 2019)
